Structures can show the parent of a compound that is named as a salt.
Legend:
Assay type in all cases: physicochemical
[1] = Thermogravimetric analysis (TGA) of the salts: loss on drying, desolvation and decomposition temperature; details: for Tdecomposition: approximated by onset of first derivative of thermogravimetric curve vs. temperature, salt sample as obtained from the solvent/temperature; for Tdesolvation: value in brackets after LOD
Source text: In addition, “loss on drying” (LOD) refers to weight loss determined between ambient and decomposition temperatures. The later is approximated by the onset of the first derivative of the thermogravimetric curve vs. temperature. […] Salt formation, stoichiometry, and the presence or absence of solvents is confirmed by observing the ^1H-NMR chemical shifts of the corresponding salt forming agents and reaction solvents (the tables contain one characteristic chemical shift for salt forming agents or solvents). […] The extent of protonation of the free base is assessed by the change in the chemical shift of the benzylic (Hbz) protons. […] Finally, “-” indicates a measurement not taken.
A stoichiometric amount of acetic acid was subsequently added to the suspension. The mixture was stirred at either 60° C. or ambient temperature (where a clear solution formed, stirring continued at 4° C.). Solids were collected by filtration and analyzed by XRPD, TGA and in some instances ^1H-NMR.

[2] = as above; details: isothermal hold at 120° C. for 10 minutes
[3] = Hygroscopicity / moisture uptake observed on isolation of the salts; details: observation on isolated solid / during filtration
Protocol: A stoichiometric amount of sodium hydroxide was subsequently added to the suspension. The mixture was stirred at 50° C. Once a clear solution formed, stirring continued at 4° C. Solids were collected by filtration and analyzed by XRPD and TGA.
It is noted that the initially formed yellow powder is a polymorph of the mesylate salt that contains more than the equimolar amount of methane sulfonic acid. […] Upon gentle heating to 40 or 50° C. and within 2 to 4 hours, the yellow powder converts to a white crystalline solid that contains the equimolar amount of the methane sulfonic acid. This salt is non-hygroscopic. It is also advised that addition of the methane sulfonic acid is done at ambient temperature and the temperature increased afterwards. It was observed that addition at higher temperature afforded the immediate precipitation of the salt as a soft and gummy material.

Q: What does the source list for `Cc1[nH]c2ccccc2c1CCNCc1ccc(/C=C/C(=O)NO)cc1` [acetate salt form A, N-hydroxy-3-[4-[[[2-(2-methyl-1H-indol-3-yl)ethyl]amino]methyl]phenyl]-2E-2-propenamide]?
A: Tdecomposition ([1]; salt formed in AcOEt at 60 °C): 147.9 °C; Tdecomposition ([1]; salt formed in IPA at 60 °C): 148.7 °C; Tdesolvation [1]: 72.5 °C

Q: With `Cc1[nH]c2ccccc2c1CCNCc1ccc(/C=C/C(=O)NO)cc1` [acetate salt form SA, N-hydroxy-3-[4-[[[2-(2-methyl-1H-indol-3-yl)ethyl]amino]methyl]phenyl]-2E-2-propenamide] as the compound, how does the Tdecomposition [1] read?
A: Its Tdecomposition is 147.9 °C.

Q: And the Tdesolvation [1]?
A: Its Tdesolvation is 107.9 °C.

Q: For `Cc1[nH]c2ccccc2c1CCNCc1ccc(/C=C/C(=O)NO)cc1` [benzoate salt form A, N-hydroxy-3-[4-[[[2-(2-methyl-1H-indol-3-yl)ethyl]amino]methyl]phenyl]-2E-2-propenamide], which Tdecomposition [1] is on record?
A: The Tdecomposition was 160.2 °C.

Q: With `Cc1[nH]c2ccccc2c1CCNCc1ccc(/C=C/C(=O)NO)cc1` [benzoate salt form SA, N-hydroxy-3-[4-[[[2-(2-methyl-1H-indol-3-yl)ethyl]amino]methyl]phenyl]-2E-2-propenamide] as the compound, how does the “LOD % (isothermal)” value [2] read?
A: The value was 5.2%.

Q: What about the Tdecomposition [1] of the same compound?
A: Its Tdecomposition is “at 110 °C”.

Q: With `Cc1[nH]c2ccccc2c1CCNCc1ccc(/C=C/C(=O)NO)cc1` [benzoate salt form SB, N-hydroxy-3-[4-[[[2-(2-methyl-1H-indol-3-yl)ethyl]amino]methyl]phenyl]-2E-2-propenamide] as the compound, how does the “LOD % (isothermal)” value [2] read?
A: Its value is 6.3%.

Q: What about the Tdecomposition [1] of the same compound?
A: Its Tdecomposition is “dec. at 100 °C”.

Q: Which Hygroscopicity [3] does the source give for `Cc1[nH]c2ccccc2c1CCNCc1ccc(/C=C/C(=O)NO)cc1` [calcium salt, N-hydroxy-3-[4-[[[2-(2-methyl-1H-indol-3-yl)ethyl]amino]methyl]phenyl]-2E-2-propenamide] here?
A: Its Hygroscopicity is “less hygroscopic than the sodium or potassium salt”.

Q: For `Cc1[nH]c2ccccc2c1CCNCc1ccc(/C=C/C(=O)NO)cc1` [gentisate salt form A, N-hydroxy-3-[4-[[[2-(2-methyl-1H-indol-3-yl)ethyl]amino]methyl]phenyl]-2E-2-propenamide], which Tdecomposition [1] is on record?
A: Its Tdecomposition is 235.5 °C.

Q: With `Cc1[nH]c2ccccc2c1CCNCc1ccc(/C=C/C(=O)NO)cc1` [hemi-fumarate salt form B, N-hydroxy-3-[4-[[[2-(2-methyl-1H-indol-3-yl)ethyl]amino]methyl]phenyl]-2E-2-propenamide] as the compound, how does the Tdecomposition [1] read?
A: Its Tdecomposition is 213.2 °C.

Q: For `Cc1[nH]c2ccccc2c1CCNCc1ccc(/C=C/C(=O)NO)cc1` [hemi-fumarate salt form HA, N-hydroxy-3-[4-[[[2-(2-methyl-1H-indol-3-yl)ethyl]amino]methyl]phenyl]-2E-2-propenamide], which Tdecomposition [1] is on record?
A: The Tdecomposition was 159.8 °C.

Q: With `Cc1[nH]c2ccccc2c1CCNCc1ccc(/C=C/C(=O)NO)cc1` [hemi-malate salt form SA, N-hydroxy-3-[4-[[[2-(2-methyl-1H-indol-3-yl)ethyl]amino]methyl]phenyl]-2E-2-propenamide] as the compound, how does the Tdecomposition [1] read?
A: The Tdecomposition was 95 °C.

Q: With `Cc1[nH]c2ccccc2c1CCNCc1ccc(/C=C/C(=O)NO)cc1` [hemi-malonate salt form A, N-hydroxy-3-[4-[[[2-(2-methyl-1H-indol-3-yl)ethyl]amino]methyl]phenyl]-2E-2-propenamide] as the compound, how does the Tdecomposition ([1]; salt prepared in EtOH) read?
A: Its Tdecomposition is 169.5 °C.

Q: And the Tdecomposition ([1]; salt prepared in IPA)?
A: The Tdecomposition was 174.1 °C.

Q: Which results are given for `Cc1[nH]c2ccccc2c1CCNCc1ccc(/C=C/C(=O)NO)cc1` [hemi-succinate salt form SA, N-hydroxy-3-[4-[[[2-(2-methyl-1H-indol-3-yl)ethyl]amino]methyl]phenyl]-2E-2-propenamide]?
A: Tdecomposition [1]: 155.8 °C; Tdesolvation [1]: (90.6) (2- ° C.

Q: For `Cc1[nH]c2ccccc2c1CCNCc1ccc(/C=C/C(=O)NO)cc1` [hemi-tartarate salt form B, N-hydroxy-3-[4-[[[2-(2-methyl-1H-indol-3-yl)ethyl]amino]methyl]phenyl]-2E-2-propenamide], which Tdecomposition [1] is on record?
A: The Tdecomposition was >160 °C.

Q: For `Cc1[nH]c2ccccc2c1CCNCc1ccc(/C=C/C(=O)NO)cc1` [hydrochloride salt form A, N-hydroxy-3-[4-[[[2-(2-methyl-1H-indol-3-yl)ethyl]amino]methyl]phenyl]-2E-2-propenamide], which Tdecomposition [1] is on record?
A: Its Tdecomposition is 232.3 °C.

Q: Which Tdecomposition [1] does the source give for `Cc1[nH]c2ccccc2c1CCNCc1ccc(/C=C/C(=O)NO)cc1` [maleate salt form HA, N-hydroxy-3-[4-[[[2-(2-methyl-1H-indol-3-yl)ethyl]amino]methyl]phenyl]-2E-2-propenamide] here?
A: The Tdecomposition was 150 °C.

Q: For `Cc1[nH]c2ccccc2c1CCNCc1ccc(/C=C/C(=O)NO)cc1` [maleate salt polymorph from 2-propanol (yellow powder)] [N-hydroxy-3-[4-[[[2-(2-methyl-1H-indol-3-yl)ethyl]amino]methyl]phenyl]-2E-2-propenamide], which Tdecomposition [1] is on record?
A: The Tdecomposition was 118.9 °C.

Q: Which Tdecomposition [1] does the source give for `Cc1[nH]c2ccccc2c1CCNCc1ccc(/C=C/C(=O)NO)cc1` [mesylate salt form A, N-hydroxy-3-[4-[[[2-(2-methyl-1H-indol-3-yl)ethyl]amino]methyl]phenyl]-2E-2-propenamide] here?
A: Its Tdecomposition is 170.9 °C.

Q: And the Hygroscopicity ([3]; listed as mesylate salt yellow powder)?
A: The Hygroscopicity was “very highly hygroscopic”.

Q: For `Cc1[nH]c2ccccc2c1CCNCc1ccc(/C=C/C(=O)NO)cc1` [mesylate salt form B, N-hydroxy-3-[4-[[[2-(2-methyl-1H-indol-3-yl)ethyl]amino]methyl]phenyl]-2E-2-propenamide], which Hygroscopicity ([3]; listed as mesylate salt white crystalline solid) is on record?
A: The Hygroscopicity was “non-hygroscopic”.

Q: Which Tdecomposition [1] does the source give for `Cc1[nH]c2ccccc2c1CCNCc1ccc(/C=C/C(=O)NO)cc1` [mesylate salt forms A + B, N-hydroxy-3-[4-[[[2-(2-methyl-1H-indol-3-yl)ethyl]amino]methyl]phenyl]-2E-2-propenamide] here?
A: The Tdecomposition was 172.8 °C.

Q: With `Cc1[nH]c2ccccc2c1CCNCc1ccc(/C=C/C(=O)NO)cc1` [oxalate salts, N-hydroxy-3-[4-[[[2-(2-methyl-1H-indol-3-yl)ethyl]amino]methyl]phenyl]-2E-2-propenamide] as the compound, how does the Hygroscopicity [3] read?
A: Its Hygroscopicity is “appear to absorb water during filtration”.

Q: For `Cc1[nH]c2ccccc2c1CCNCc1ccc(/C=C/C(=O)NO)cc1` [phosphate salt form HA, N-hydroxy-3-[4-[[[2-(2-methyl-1H-indol-3-yl)ethyl]amino]methyl]phenyl]-2E-2-propenamide], which Tdecomposition [1] is on record?
A: The Tdecomposition was 179.6 °C.

Q: With `Cc1[nH]c2ccccc2c1CCNCc1ccc(/C=C/C(=O)NO)cc1` [potassium salt, N-hydroxy-3-[4-[[[2-(2-methyl-1H-indol-3-yl)ethyl]amino]methyl]phenyl]-2E-2-propenamide] as the compound, how does the Hygroscopicity [3] read?
A: The Hygroscopicity was “highly hygroscopic”.

Q: With `Cc1[nH]c2ccccc2c1CCNCc1ccc(/C=C/C(=O)NO)cc1` [sodium salt, N-hydroxy-3-[4-[[[2-(2-methyl-1H-indol-3-yl)ethyl]amino]methyl]phenyl]-2E-2-propenamide] as the compound, how does the Hygroscopicity [3] read?
A: The Hygroscopicity was “highly hygroscopic”.

Q: With `Cc1[nH]c2ccccc2c1CCNCc1ccc(/C=C/C(=O)NO)cc1` [sulfate salt form A, N-hydroxy-3-[4-[[[2-(2-methyl-1H-indol-3-yl)ethyl]amino]methyl]phenyl]-2E-2-propenamide] as the compound, how does the Tdecomposition [1] read?
A: Its Tdecomposition is ~160 °C.

Q: And the Hygroscopicity [3]?
A: Its Hygroscopicity is “hygroscopic”.

Q: For `Cc1[nH]c2ccccc2c1CCNCc1ccc(/C=C/C(=O)NO)cc1` [sulfate salt form SA, N-hydroxy-3-[4-[[[2-(2-methyl-1H-indol-3-yl)ethyl]amino]methyl]phenyl]-2E-2-propenamide], which Tdecomposition [1] is on record?
A: The Tdecomposition was 162 °C.

Q: Which Hygroscopicity [3] does the source give for `Cc1[nH]c2ccccc2c1CCNCc1ccc(/C=C/C(=O)NO)cc1` [zinc salt, N-hydroxy-3-[4-[[[2-(2-methyl-1H-indol-3-yl)ethyl]amino]methyl]phenyl]-2E-2-propenamide] here?
A: The Hygroscopicity was “less hygroscopic than the sodium or potassium salt”.
